In brackets after ≈: the same amount, converted by molar mass. Several values for one entry are separate records, joined by “and”; a condition that tells them apart may be missing. Equal values may be shown once.

The test system of one data set is Sclerotinia sclerotiorum. Briefly: Synergistic Growth Inhibition Assay (MIC / FIC index) against Sclerotinia sclerotiorum. It counts as cell-based. The following applies: for MIC (B): individual compound alone, incubation 7 days. The method, then: (§1) In some embodiments, the synergistic action between the pesticidal active ingredient, and the C6-C10 unsaturated aliphatic acid components of the pesticidal compositions according to embodiments of the present disclosure was tested using a Synergistic Growth Inhibition Assay, which is derived from and related to a checkerboard assay as is known in the art for testing of combinations of antimicrobial agents. In the Synergistic Growth Inhibition Assay used in accordance with some embodiments of the present disclosure, multiple dilutions of combinations of pesticidal active ingredient and C6-C10 (or alternatively C11 or C12) unsaturated aliphatic acid agents are tested in individual cells for inhibitory activity against a target pest or pathogenic organism. In one such embodiment, the combinations of pesticidal active ingredient and C6-C10 unsaturated aliphatic acid agents may preferably be tested in decreasing concentrations. In a further such embodiment, the combinations of pesticidal active ingredient and C6-C10 (or alternatively C11 or C12) unsaturated aliphatic acid agents may be tested in increasing concentrations. These multiple combinations of the pesticidal active ingredient and C6-C10 (or alternatively C11 or C12) unsaturated aliphatic acid agents may be prepared in 96-well microtiter plates. In one such embodiment, the Synergistic Growth Inhibition Assay then comprises rows which each contain progressively decreasing concentrations of the pesticidal active ingredient and C6-C10 (or alternatively C11 or C12) unsaturated aliphatic acid agents to test for the MIC of the agents in combination at which growth of the target pest or pathogen is inhibited. Thus, each well of the microtiter plate is a unique combination of the two agents, at which inhibitory efficacy of the combination against the target pest or pathogen can be determined.
(§2) In one embodiment according to the present disclosure, for each row of microtiter cells in the Synergistic Growth Inhibition Assay, the FIC index is calculated from the lowest concentration of the pesticidal active ingredient and C6-C10 unsaturated aliphatic acid agents necessary to inhibit growth of a target pest or pathogen. The FIC of each component is derived by dividing the concentration of the agent present in that well of the microtiter plate by the minimal inhibitory concentration (MIC) needed of that agent alone to inhibit growth of the target pest or pathogen. The FIC index is then the sum of these values for both agents in that well of the microtiter plate. […] Fractional inhibitory concentration indices may then used as measure of synergy. […] When the FIC index is equal to 1, the combination is additive.
(§3) In some embodiments of the present disclosure, the exemplary Synergistic Growth Inhibition Assay was conducted starting with an initial composition comprising a pesticidal active ingredient agent at its individual MIC and a C6-C10 (or alternatively C11 or C12) unsaturated aliphatic acid agent at its individual MIC in the first well of a row on a 96 well microtiter plate. Then, serial dilutions of these initial compositions in successive wells in the row of the microtiter plate were used to assay the pesticidal composition under the same conditions to determine the concentration of the composition combining the two agents corresponding to the microtiter well in which growth inhibition of the target pest or organism ceases.
A culture of the representative fungal pathogen, namely Fusarium oxysporum or Botrytis cinerea, for example, is grown to exponential phase in potato dextrose broth (PDB).

Another data set deals with Fusarium oxysporum. The experiment in a line: Synergistic Growth Inhibition Assay (MIC / FIC index, resazurin) against Fusarium oxysporum. The format is cell-based. Conditions: for MIC (B): Compound B (unsaturated aliphatic acid) alone, Fusarium oxysporum. The method, then: as §1, §2, §3
In some embodiments, Fusarium oxysporum was used as a representative pest organism or pathogen to determine synergy in pesticidal compositions comprising a pesticidal active ingredient agent and a C6-C10 (or alternatively C11 or C12) unsaturated aliphatic acid agent. Resazurin dye (also known as Alamar blue dye) was used as an indicator to determine the presence of growth or inhibition of growth of Fusarium oxysporum in the wells of the 96 well microtiter plates used in the exemplary Synergistic Growth Inhibition Assay.
(In general: The colour change of resazurin is a common sign of viable cells or microbes.)

A further data set relates to Botrytis cinerea. The experiment in a line: Synergistic Growth Inhibition Assay (MIC / FIC index, resazurin) against Botrytis cinerea. It counts as cell-based. The method, then: as §1
as §2, with “additive. […]” for “additive.”

Data set [1] relates to Trichoplusia ni. Briefly: In-vitro insecticidal efficacy on treated modified McMorran artificial diet (Colby synergy). The format is in vivo, Trichoplusia ni (cabbage looper). Conditions: Pylon […]. The method, then:
A stock solution was prepared for each of trans-2-hexenoic acid and trans-3-hexenoic acid (both available from Sigma-Aldrich, St. Louis, MO, USA), by dissolving each exemplary unsaturated aliphatic acid in 100% dimethylsulfoxide (DMSO) at a concentration of 20 mg/mL (20,000 ppm). A stock solution for the potassium salt of (2E,4E)-2,4-hexadienoic acid was prepared by dissolving the salt in water to form a 20 mg/mL (20,000 ppm) solution.
An artificial diet suitable for Trichoplusia ni (cabbage looper caterpillar) was prepared according to the modified McMorran artificial diet recipe known in the entomology field (containing agar, casein, potassium hydroxide, alphacel, Wesson's salt mix, sugar, toasted wheat germ, choline chloride, ascorbic acid, methyl paraben, aureomycin, linseed oil and vitamin solution).
The treated artificial diet was then used to fill each well of a 24-well treatment plate with approximately 0.5 mL of artificial diet, which was allowed to solidify at room temperature and stored overnight at approximately 4 C. […] Each experiment contained 3 replicates, and was repeated at least 3 times.
(§4) While for SF<1, antagonism is present and for SF=1, the efficacy of the compounds is merely additive.

Data set [2] deals with Trichoplusia ni. The experiment in a line: In-planta insecticidal efficacy on sprayed green cabbage plants (Colby synergy). It counts as in vivo, Trichoplusia ni (cabbage looper). Conditions: […] Pylon, 0.06 mg/mL acid (salt). The method, then: A stock solution for the potassium salt of (2E,4E)-2,4-hexadienoic acid was prepared by dissolving the salt in water to form a 20 mg/mL (20,000 ppm) solution.
Each experiment was repeated at least 3 times.
as §4

Data set [3] is described as follows: Solubility / effective solubilized concentration in 10% DMSO/90% PDB by HPLC. The method, then:
This solution was diluted 10-fold in potato dextrose broth (PDB) to give a concentration of 0.05 mg/mL in 10% DMSO/90% PDB.
This solution was diluted 10-fold in potato dextrose broth (PDB) to give a concentration of 0.1 mg/mL in 10% DMSO/90% PDB.

Where [4] appears, read: individual compound alone, incubation 48 hours.

With `CCCCCC=CCC(=O)O` [3-Nonenoic acid, 3-nonenoic acid], the “MIC (B)” value with Sclerotinia sclerotiorum is 39.06 µg/mL and 78.12 µg/mL and 156.2 µg/mL.
Take `CCCCCCC=CCC(=O)O` [3-Decenoic acid, 3-decenoic acid]: the “MIC of individual compound alone (MIC (A) or MIC (B))” value (“MIC of individual compound alone” for short) in the data set with Fusarium oxysporum (24 hour incubation) was 73.36 µg/mL; in the data set with Fusarium oxysporum (48 hours incubation) it was 312.5 µg/mL and 78.12 µg/mL. Further, the “MIC (B)” value in the data set on Botrytis cinerea (setting [4]) was 39.06 µg/mL and 78.12 µg/mL; with Sclerotinia sclerotiorum it was 39.06 µg/mL and 78.12 µg/mL.
Regarding `CC/C=C/CC(=O)O` [Trans-3-hexenoic acid, trans-3-hexenoic acid], the “MIC (B)” value in the data set with Fusarium oxysporum (48 hours incubation) and in the data set on Sclerotinia sclerotiorum was 156.2 µg/mL each time. Also, the “MIC of individual compound alone” value in the data set with Fusarium oxysporum (24 hour incubation) and in the data set with Fusarium oxysporum (48 hours incubation) was 312.5 µg/mL throughout. The entries for the “72 hr Obs. Efficacy” value in the data set with Trichoplusia ni [1] (0.05 mg/mL acid (salt)) and in the data set on Trichoplusia ni [1] (0.30 mg/mL acid (salt)) were 0% and 4%, respectively. Also, the “90 hr Obs. Efficacy” value with Trichoplusia ni [1] (0.05 mg/mL acid (salt)) turned out to be 0%; in the data set on Trichoplusia ni [1] (0.30 mg/mL acid (salt)) it was 4%. In addition, the “120 hr Obs. Efficacy” value with Trichoplusia ni [1] (0.05 mg/mL acid (salt)) and in the data set on Trichoplusia ni [1] (0.30 mg/mL acid (salt)) was 0% in each case.
With `CCCCC=CCC(=O)O` [3-Octenoic acid, 3-octenoic acid], the “MIC of individual compound alone” value with Botrytis cinerea (compound alone, 24 hour incubation) was 146.6 µg/mL.
Consider `CCCC/C=C/CC(=O)O` [Trans-3-octenoic acid, trans-3-octenoic acid], for which the “MIC of individual compound alone” value in the data set on Fusarium oxysporum (48 hours incubation) was 156.2 µg/mL.
For the compound `C/C=C(/C)C(=O)O[C@H]1C[C@@H](OC(C)=O)[C@@]2(C)CO[C@H]3[C@H]4O[C@@H]5C[C@@H](c6ccoc6)C(C)=C5[C@@]4(C)[C@H](CC(=O)OC)[C@]1(C)[C@@H]32` [Salannin], the MIC (usually the lowest concentration found to suppress growth) with Botrytis cinerea (Botrytis cinerea, 48 h, individual compound alone, incubation 48 hours) turned out to be 50 µg/mL.
Turning to `N#Cc1c[nH]cc1-c1cccc2c1OC(F)(F)O2` [Fludioxonil, fludioxonil, reference compound], the “MIC of individual compound alone” value in the data set on Fusarium oxysporum (24 hour incubation) is 0.24063 µg/mL.
For `CC=CCCC(=O)O` [4-Hexenoic acid, 4-hexenoic acid], the MIC in the data set with Sclerotinia sclerotiorum (Sclerotinia sclerotiorum, […], Compound B (unsaturated aliphatic acid) alone, 7 days incubation) came to 156 µg/mL.
As for `C=CCCCCCCCC(=O)O` [9-Decenoic acid, 9-decenoic acid], the “MIC of individual compound alone” value stood at 71.72 µg/mL in the data set with Fusarium oxysporum (24 hour incubation) and 312.5 µg/mL with Fusarium oxysporum (48 hours incubation). In addition, the “MIC (B)” value is 78.12 µg/mL in the data set with Botrytis cinerea (setting [4]); 39.06 µg/mL and 78.12 µg/mL with Sclerotinia sclerotiorum.
Regarding `CCCCCCC/C=C/C(=O)O` [Trans-2-decenoic acid, trans-2-decenoic acid], the “MIC (B)” value with Fusarium oxysporum (48 hours incubation) was determined as 156.2 µg/mL; in the data set with Fusarium oxysporum (48 hours incubation, listed as Trans-2-Decenoic acid), 78.12 µg/mL. The “MIC of individual compound alone” value with Fusarium oxysporum (24 hour incubation) is 36.25 µg/mL.
For `CCCC=CCC(=O)O` [3-Heptenoic acid, 3-heptenoic acid], the “MIC of individual compound alone” value in the data set with Fusarium oxysporum (48 hours incubation) turned out to be 156.2 µg/mL. In the data set with Sclerotinia sclerotiorum, the “MIC (B)” value is 78.12 µg/mL.
As to `CCC/C=C/C(=O)O` [Trans-2-hexenoic acid, trans-2-hexenoic acid], the “MIC of individual compound alone” value with Fusarium oxysporum (24 hour incubation) worked out at 312.5 µg/mL. In the data set on Sclerotinia sclerotiorum, the “MIC (B)” value came to 78.12 µg/mL. In addition, the “72 hr Obs. Efficacy” value in the data set on Trichoplusia ni [1] (0.05 mg/mL acid (salt)) and in the data set with Trichoplusia ni [1] (0.30 mg/mL acid (salt)) was 0% each time. The “90 hr Obs. Efficacy” value with Trichoplusia ni [1] (0.05 mg/mL acid (salt)) and in the data set with Trichoplusia ni [1] (0.30 mg/mL acid (salt)) was 0% in each case. For the same compound, the “120 hr Obs. Efficacy” value with Trichoplusia ni [1] (0.05 mg/mL acid (salt)) and in the data set with Trichoplusia ni [1] (0.30 mg/mL acid (salt)) was 0% each time. Also, the “Observed Efficacy (%)” value in the data set on Trichoplusia ni [2] (after 48 hours) and in the data set with Trichoplusia ni [2] (after 72 hours) was 0% each time.
Turning to `COC(=O)N(OC)c1ccccc1COc1ccn(-c2ccc(Cl)cc2)n1` [Pyraclostrobin, pyraclostrobin], the “solubility in 10% DMSO/90% PDB” value in data set [3] came to 15.4 µg/mL (≈ 39.7 µM).
`C=CCCCC(=O)O` [5-Hexenoic acid, 5-hexenoic acid]: the “MIC (B)” value with Fusarium oxysporum (48 hours incubation) and in the data set on Sclerotinia sclerotiorum was 156.2 µg/mL in each case.
Regarding `CO/C=C(/C(=O)OC)c1ccccc1Oc1cc(Oc2ccccc2C#N)ncn1` [Azoxystrobin, reference compound], the “MIC of individual compound alone” value came out at 150 µg/mL with Fusarium oxysporum (48 hours incubation) and 150 µg/mL in the data set with Sclerotinia sclerotiorum (compound alone, 7 days incubation).
Turning to `C/C=C/C=C/C(=O)O` [(2E,4E)-2,4-hexadienoic acid], in the data set on Fusarium oxysporum (24 hour incubation), the “MIC of individual compound alone” value is 125 µg/mL.
Consider `C=CCCCCCC(=O)O` [7-Octenoic acid, 7-octenoic acid], for which, in the data set on Fusarium oxysporum (48 hours incubation), the “MIC (B)” value stood at 312.5 µg/mL.
In the case of `CCCCC/C=C/C(=O)O` [Trans-2-octenoic acid, trans-2-octenoic acid], the “MIC (B)” value in the data set with Fusarium oxysporum (48 hours incubation) turned out to be 156.2 µg/mL.
Turning to `CCCCCCCC/C=C/C(=O)O` [Trans-2-undecenoic acid, trans-2-undecenoic acid], the “MIC (B)” value with Sclerotinia sclerotiorum amounted to 78.12 µg/mL.
On to `C/C=C/C=C/C(=O)[O-].[K+]` [(2E,4E)-2,4-hexadienoic acid, potassium salt], for which, in the data set with Fusarium oxysporum (24 hour incubation), the “MIC of individual compound alone” value came out at 625 µg/mL.

(Values after patent US12501898B2, “Synergistic pesticidal compositions and methods for delivery of active ingredients” (0903608 B.C. Ltd., priority 2017, dated 2025).)
